Experimental data: patent publication US20190358199A1 (priority 2010, published 2019)

How the values were obtained:
symptoms of depression = details: eight weeks of treatment; Sepracor Press Release, Jul. 1, 2009; cited from earlier work
[1] = Six-week double-blind placebo-controlled Phase 2 study, safety and tolerability; type: in vivo, human
Experimental: Subjects were evaluated for safety parameters prior to and throughout the trial by a variety of measures including electrocardiogram, physical examination, vital signs and body weight, and clinical laboratory testing including a lipid panel, CBC with differential and urinalysis, Samples were drawn to assess total bilirubin, alkaline phosphatase, ALT (SGPT), AST (SGOT), blood urea nitrogen (BUN), creatinine, glucose, uric acid, calcium, phosphorus, total protein, albumin, total cholesterol, LDL, HDL, triglycerides, sodium, potassium, bicarbonate, chloride, GGT and creatine kinase, Hepatitis B, C and HIV serologies, TSH, drug screen and serum pregnancy test for females.
(§1) • Visits and evaluations were performed according to the following schedule of events: • Visit 1: Screening Visit: • The following was obtained/performed at the Screening Visit (Visit 1): • Written informed consent • Medical history including: • Relevant demographic information • Detailed medical and surgical history, including review of systems • Whenever possible, the patient's medical history was confirmed by medical records. • Prior medication: Medication taken by the patients 30 days prior to the Screening Visit was recorded. • AE assessment • Height (cm) • Weight (kg); BMI was determined and was ≤35 for the patient to be randomized • Complete physical examination • MINI diagnostic exam • Vital signs (respiratory rate, oral temperature (° C.), blood pressure, pulse). […] The capsules were taken for 7 days prior to the Baseline/Day 1 Visit (Visit 3). The first dose of placebo was taken at the clinic with 240 mL of water after a light meal. • Patients were provided with a diary to record the date, time and dosage of each dose.
(§2) Efficacy was determined by measuring the change from baseline in the Montgomery-Åsberg Depression Rating Scale (MADRS), the HAMD-17, the Clinical Global Impression Global Improvement Scale (CGI-I), the Clinical Global Impression-Severity scale (CGI-S) and the Derogatis Interview for Sexual Functioning Self-Report (DISF-SR). […] Comparisons between treatment groups based on MADRS (the primary efficacy parameter), HAMD-17, Anhedonia, DISF-SR, CGI-I and CGI-S scores were analyzed using a mixed-repeated measures (MMRM) analysis model including factors for Subject, Visit, Treatment Arm and Baseline value as a covariate. Adjusted least-squares means from these models are presented. Comparisons between groups were made at each post-baseline visit using model-based contrasts and adjusted degrees of freedom. For these analyses no explicit data imputations were made prior to the analysis. Response and remission categorical data were analyzed using chi-square tests. Inferential analyses of safety data were conducted with ANOVA models or chi-square tests. Two-tail alpha was set to 0.05. All analyses were conducted using SAS version 9.2.

[2] = system: patients with Major Depressive Disorder; assay: Six-week double-blind placebo-controlled Phase 2 study, efficacy; type: in vivo, human
Source text: Subjects were identified who were between the ages of 18-65 (inclusive), and met criteria for Major Depressive Disorder in accordance with the Diagnostic and Statistical manual of Mental Disorders-IV-TR and confirmed by the MINI International Neuropsychiatric Interview.
Subjects were required to refrain from taking antidepressants, anticonvulsants including gabapentin and pregabalin, neuroleptics, MAO inhibitors, barbiturates, benzodiazepines, stimulants, antipsychotics, lithium, anxiolytics and beta blockers starting two weeks prior to the study and continuing until after the follow-up visit.
as §1, §2

## N[C@@H]1CC[C@@H](c2ccc(Cl)c(Cl)c2)c2ccccc21 [SEP-225289]
Symptoms of depression
  primary efficacy endpoint compared to placebo (reduction in symptoms of depression, 17-item HAM-D): did not meet the primary efficacy endpoint compared to placebo

## Clc1ccc([C@]23CNC[C@H]2C3)cc1Cl [(+)-1-(3,4-dichlorophenyl)-3-azabicyclo[3.1.0]hexane]
[1]; 10 patients, placebo 11 or 39.28%
  percentage of patients who reported an adverse treatment event: 30.30%
[1]; n = 33
  Treatment-Emergent Adverse Events: Abdominal Pain (NOS) (% of Patients): 2 (6.06%)
  Treatment-Emergent Adverse Events: Anxiety (% of Patients): 2 (6.06%)
  Treatment-Emergent Adverse Events: Diarrhea NOS (% of Patients): 2 (6.06%)
  Treatment-Emergent Adverse Events: Emotional Disturbance NOS (% of Patients): 2 (6.06%)
  Treatment-Emergent Adverse Events: Headache NOS (% of Patients): 3 (9.09%)
  Treatment-Emergent Adverse Events: Irritability (% of Patients): 2 (6.06%)
  Treatment-Emergent Adverse Events: Nausea (% of Patients): 2 (6.06%)
  Treatment-Emergent Adverse Events: Rash NOS (% of Patients): 2 (6.06%)
  Treatment-Emergent Adverse Events: Upper Respiratory Tract Infection NOS (% of Patients): 2 (6.06%)
[1]; same number in the placebo group
  patients who discontinued the study early due to AEs: Two
[1]; six-week study
  serious AEs: no serious AEs were reported
[2]; Visit 8, LOCF, Completers, 100 mg, 50% reduction or more of baseline total score, 8/20
  Response rate, MADRS: 40.00%
[2]; Visit 8, LOCF, Completers, 100 mg, 50% reduction or more of baseline total score, 11/20
  Response rate, HAMD-17: 55.00%
[2]; Visit 8, LOCF, Completers, 100 mg, HAMD-17 ≤ 7, 4/20
  Remission rate, HAMD-17: 20.00%
[2]; Visit 8, LOCF, Completers, 100 mg, MADRS ≤ 12, 6/20
  Remission rate, MADRS: 30.00%
[2]; Visit 8, MMRM, MITT, 95% CI (−0.21, 0.66), P = 0.306
  CGI-S LS mean, Difference placebo vs drug: 0.22
[2]; Week 6, MMRM
  overall statistical effect size (Cohen's d), MADRS total score vs placebo: −0.63
